From patent US12473282B2, “Biphenyl fluorine double bond derivative, preparation method therefor, and pharmaceutical application thereof” (Abbisko Therapeutics Co., Ltd., priority 2020, dated 2025) come the findings set out here.

Experiment [1] can be described thus: Jurkat reporter gene cellular assay. The class given is cell-based. The following applies: Homo sapiens; Jurkat/NF-κB-luc/PD1 + Raji-PD-L1 coculture, OKT3 1 μg/mL, 6 hrs, activation fold; read-out: Cell Activity EC50. Summed up: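 Jurkat cells stably expressing human PD-1 and NF-κB-luciferase co-cultured with PD-L1-expressing Raji cells (5×10^4 each/well) under OKT3 (1 μg/mL final) with compound. Raji cells preincubated 20 min; luminescence read 6 h after Jurkat addition. EC50 from non-linear regression of fold activation over DMSO.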
A general note: Reporter assays use an easily measured gene product as a stand-in for the process of interest.

Experiment [2] concerns the target interaction between PD-1 and PD-L1 (Homo sapiens (Human), UniProt Q9NZQ7). Kind of experiment: PD1-PDL1 HTRF binding activity test (Cisbio PD-1/PD-L1 binding assay kit). The method, then: I. PD1-PDL1 HTRF Binding Activity Test
The effect of compounds of the examples of the present invention on the interaction between PD-1 and PD-L1 was determined by the PD-1/PD-L1 binding assay kit from Cisbio (#64ICP01PEG or 64ICP01PEH). The detailed experimental process was as follows: • 1. Pre-diluted compound solution, 4 μL of Tag1-PD-L1 and 4 μL of Tag2-PD1 were added to each well of a 384-well plate; • 2. After the mixture was incubated at room temperature for 15 min, 5 μL of anti-Tag1-Eu3+ antibody and 5 μL of anti-Tag2-XL665 antibody were then added; • 3. After incubated for 2 hrs at room temperature or overnight at 4° C., plates were read on Envision of Pelkin Elmer; and readings at 665 nm and 620 nm were recorded, and the ratio of the two readings was taken as a reading for each well; • 4. The reading of each well after compound treatment was compared with the reading of DMSO treated wells to obtain the percent inhibition of the compound; • 5. IC50 values of compounds and positive compounds of the examples of the present invention were determined by non-linear regression analysis of percent inhibition at different compound concentrations. II. Jurkat Reporter Gene Cellular Assay
For orientation: In TR-FRET formats the signal depends on donor and acceptor labels being close together.

interaction between PD-1 and PD-L1, sequence (Q9NZQ7 19-238): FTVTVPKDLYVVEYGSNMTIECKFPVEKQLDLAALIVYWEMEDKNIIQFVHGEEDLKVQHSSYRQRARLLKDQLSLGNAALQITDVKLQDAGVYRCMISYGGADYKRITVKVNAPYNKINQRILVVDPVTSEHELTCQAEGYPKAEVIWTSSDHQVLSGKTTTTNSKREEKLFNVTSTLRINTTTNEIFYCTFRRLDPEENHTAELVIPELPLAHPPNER

Regarding `COc1cc(/C(F)=C/c2cccc(-c3cccc(NC(=O)c4nc5c(n4C)CCN(C[C@H]4CC[C@H](C(=O)O)CC4)C5)c3C)c2C)ncc1CNC[C@@H]1CCC(=O)N1` [Example 17, (1R,4R)-4-((2-((3′-((Z)-2-fluoro-2-(4-methoxy-5-(((((S)-5-oxopyrrolidin-2-yl)methyl)amino)methyl)pyridin-2-yl)vinyl)-2,2′-dimethyl-[1,1′-biphenyl]-3-yl)carbamoyl)-1-methyl-1,4,6,7-tetrahydro-5H-imidazo[4,5-c]pyridin-5-yl)methyl)cyclohexane-1-carboxylic acid], the EC50 in experiment [1] turned out to be 464 nM. The molecule also yielded an IC50 in experiment [2] of 0.331 nM.
Regarding `COc1cc(/C(F)=C/c2cccc(-c3cccc(NC(=O)c4nc5c(n4C)CCN(CCC46CCC(C(=O)O)(CC4)C6)C5)c3Cl)c2Cl)ncc1CN1CC(C)(O)C1` [Example 33, (Z)-4-(2-(2-((2,2′-dichloro-3′-(2-fluoro-2-(5-((3-hydroxy-3-methylazetidin-1-yl)methyl)-4-methoxypyridin-2-yl)vinyl)-[1,1′-biphenyl]-3-yl)carbamoyl)-1-methyl-1,4,6,7-tetrahydro-5H-imidazo[4,5-c]pyridin-5-yl)ethyl)bicyclo[2.2.1]heptane-1-carboxylic acid], the EC50 in experiment [1] turned out to be 85.8 nM. The same molecule returned an IC50 in experiment [2] of 0.489 nM.
Taken in the same sequence, the figures for `COc1cc(/C(F)=C/c2cccc(-c3cccc(NC(=O)c4nc5c(n4C)CCN(CCC46CCC(C(=O)O)(CC4)C6)C5)c3Cl)c2Cl)ncc1CNC[C@@H]1CCC(=O)N1` [Example 34, (S,Z)-4-(2-(2-((2,2′-dichloro-3′-(2-fluoro-2-(4-methoxy-5-((((5-oxopyrrolidin-2-yl)methyl)amino)methyl)pyridin-2-yl)vinyl)-[1,1′-biphenyl]-3-yl)carbamoyl)-1-methyl-1,4,6,7-tetrahydro-5H-imidazo [4,5-c]pyridin-5-yl)ethyl)bicyclo[2.2.1]heptane-1-carboxylic acid] were 80.4 nM and 0.352 nM.
Taken in the same sequence, the figures for `COc1cc(/C(F)=C/c2cccc(-c3cccc(NC(=O)c4nc5c(n4C)CCN(CCC46CCC(C(=O)O)(CC4)C6)C5)c3Cl)c2Cl)ncc1CN[C@@H]1CCOC[C@H]1O` [Example 35, 4-(2-(2-((2,2′-dichloro-3′-((Z)-2-fluoro-2-(5-((((3S,4R)-3-hydroxytetrahydro-2H-pyran-4-yl)amino)methyl)-4-methoxypyridin-2-yl)vinyl)-[1,1′-biphenyl]-3-yl)carbamoyl)-1-methyl-1,4,6,7-tetrahydro-5H-imidazo[4,5-c]pyridin-5-yl)ethyl)bicyclo[2.2.1]heptane-1-carboxylic acid] were 93.1 nM and 0.638 nM.
Taken in the same sequence, the figures for `Cn1c(C(=O)Nc2cccc(-c3cccc(/C=C(\F)c4cc(C5CC5)c(CN5CC(C)(O)C5)cn4)c3Cl)c2Cl)nc2c1CCN(CCC13CCC(C(=O)O)(CC1)C3)C2` [Example 36, (Z)-4-(2-(2-((2,2′-dichloro-3′-(2-(4-cyclopropyl-5-((3-hydroxy-3-methylazetidin-1-yl)methyl)pyridin-2-yl)-2-fluorovinyl)-[1,1′-biphenyl]-3-yl)carbamoyl)-1-methyl-1,4,6,7-tetrahydro-5H-imidazo[4,5-c]pyridin-5-yl)ethyl)bicyclo[2.2.1]heptane-1-carboxylic acid] were 3130 nM and 0.306 nM.
Turning to `COc1cc(/C(F)=C/c2cccc(-c3cccc(NC(=O)c4nc5c(n4C)CCN(CCC46CCC(C(=O)O)(CC4)C6)C5)c3Cl)c2Cl)ncc1CN[C@H](CO)C(=O)O` [Example 37, (R,Z)-4-(2-(2-((3′-(2-(5-(((1-carboxy-2-hydroxyethyl)amino)methyl)-4-methoxypyridin-2-yl)-2-fluorovinyl)-2,2′-dichloro-[1,1′-biphenyl]-3-yl)carbamoyl)-1-methyl-1,4,6,7-tetrahydro-5H-imidazo[4,5-c]pyridin-5-yl)ethyl)bicyclo[2.2.1]heptane-1-carboxylic acid], in experiment [1], the EC50 came to 178 nM. In addition, in experiment [2], the half-maximal inhibitory concentration (IC50) is 0.202 nM.
Taken in the same sequence, the figures for `COc1cc(/C(F)=C/c2cccc(-c3cccc(NC(=O)c4nc5c(n4C)CCN(CCC46CCC(C(=O)O)(CC4)C6)C5)c3Cl)c2Cl)ncc1CNCC(F)F` [Example 38, (Z)-4-(2-(2-((2,2′-dichloro-3′-(2-(5-(((2,2-difluoroethyl)amino)methyl)-4-methoxypyridin-2-yl)-2-fluorovinyl)-[1,1′-biphenyl]-3-yl)carbamoyl)-1-methyl-1,4,6,7-tetrahydro-5H-imidazo[4,5-c]pyridin-5-yl)ethyl)bicyclo[2.2.1]heptane-1-carboxylic acid] were 977 nM and 0.332 nM.
Taken in the same sequence, the figures for `COc1cc(/C(F)=C/c2cccc(-c3cccc(NC(=O)c4nc5c(n4C)CCN(CCC46CCC(C(=O)O)(CC4)C6)C5)c3Cl)c2Cl)ncc1CN1CC[C@@H](O)C1` [Example 39, (R,Z)-4-(2-(2-((2,2′-dichloro-3′-(2-fluoro-2-(5-((3-hydroxypyrrolidin-1-yl)methyl)-4-methoxypyridin-2-yl)vinyl)-[1,1′-biphenyl]-3-yl)carbamoyl)-1-methyl-1,4,6,7-tetrahydro-5H-imidazo[4,5-c]pyridin-5-yl)ethyl)bicyclo[2.2.1]heptane-1-carboxylic acid] were 64.7 nM and 0.238 nM.
Taken in the same sequence, the figures for `COc1cc(/C(F)=C/c2cccc(-c3cccc(NC(=O)c4nc5c(n4C)CCN(CCC46CCC(C(=O)O)(CC4)C6)C5)c3Cl)c2Cl)ncc1CN[C@H]1CC[C@@H](O)CC1` [Example 40, 4-(2-(2-((2,2′-dichloro-3′-((Z)-2-fluoro-2-(5-((((1S,4S)-4-hydroxycyclohexyl)amino)methyl)-4-methoxypyridin-2-yl)vinyl)-[1,1′-biphenyl]-3-yl)carbamoyl)-1-methyl-1,4,6,7-tetrahydro-5H-imidazo[4,5-c]pyridin-5-yl)ethyl)bicyclo[2.2.1]heptane-1-carboxylic acid] were 179 nM and 0.31 nM.
`COc1cc(/C(F)=C/c2cccc(-c3cccc(NC(=O)c4nc5c(n4C)CCN(CCC46CCC(C(=O)O)(CC4)C6)C5)c3Cl)c2Cl)ncc1CNC(C)C` [Example 41, (Z)-4-(2-(2-((2,2′-dichloro-3′-(2-fluoro-2-(5-((isopropylamino)methyl)-4-methoxypyridin-2-yl)vinyl)-[1,1′-biphenyl]-3-yl)carbamoyl)-l-methyl-1,4,6,7-tetrahydro-5H-imidazo[4,5-c]pyridin-5-yl)ethyl) bicyclo[2.2.1]heptane-1-carboxylic acid]: the EC50 in experiment [1] came out at 86.7 nM. This molecule also had an IC50 in experiment [2] of 0.249 nM.
Taken in the same sequence, the figures for `COc1cc(/C(F)=C/c2cccc(-c3cccc(NC(=O)c4nc5c(n4C)CCN(CCC46CCC(C(=O)O)(CC4)C6)C5)c3Cl)c2Cl)ncc1CNC(C)(C)C` [Example 50, (Z)-4-(2-(2-((3′-(2-(5-((tert-butylamino)methyl)-4-methoxypyridin-2-yl)-2-fluorovinyl)-2,2′-dichloro-[1,1′-biphenyl]-3-yl)carbamoyl)-1-methyl-1,4,6,7-tetrahydro-5H-imidazo[4,5-c]pyridin-5-yl)ethyl) bicyclo[2.2.1]heptane-1-carboxylic acid] were 54 nM and 0.731 nM.
Taken in the same sequence, the figures for `COc1cc(/C(F)=C/c2cccc(-c3cccc(NC(=O)c4nc5c(n4C)CCN(CCC46CCC(C(=O)O)(CC4)C6)C5)c3Cl)c2Cl)ncc1CN1CC[C@H](O)C1` [Example 59, (S,Z)-4-(2-(2-((2,2′-dichloro-3′-(2-fluoro-2-(5-((3-hydroxypyrrolidin-1-yl)methyl)-4-methoxypyridin-2-yl)vinyl)-[1,1′-biphenyl]-3-yl)carbamoyl)-1-methyl-1,4,6,7-tetrahydro-5H-imidazo[4,5-c]pyridin-5-yl)ethyl)bicyclo[2.2.1]heptane-1-carboxylic acid] were 47.5 nM and 0.299 nM.

A word on the EC50: it is the concentration giving half of the maximal effect. As a reminder, the IC50 is the concentration that inhibits the measured activity by half. Low values mean greater potency, high ones weaker potency.
